Series [1] in a line: MMV: MTT Cytotoxicity Assay Day 7 pi of Assay #10 (NO washout), U87-CD4-CCR5 cells, % cell death @ 5mM compound. In kind it is toxicity, cell-based. To be noted: human, u87-cd4-ccr5, 5000 µM.
The nature of series [2]: MMV: MTT Cytotoxicity Assay Day 3 pi, U87-CD4-CCR5 cells, % cell death @ 5mM compound. Format: toxicity, cell-based. The following applies: human, u87-cd4-ccr5, 5000 µM.
The nature of series [3]: MMV: MTT Cytotoxicity Assay Day 7 pi of Assay #7 (compound washed out Day 1 pi), U87-CD4-CXCR4 cells, % cell death @ 5mM compound. In kind it is toxicity, cell-based. The following applies: human, u87-cd4-cxcr4, 5000 µM.
Series [4] in a line: MMV: MTT Cytotoxicity Assay Day 3 pi, U87-CD4-CXCR4 cells, % cell death @ 5mM compound. Format: toxicity, cell-based. The following applies: human, u87-cd4-cxcr4, 5000 µM.
The nature of series [5]: MMV: MTT Cytotoxicity Assay Day 7 pi of Assay #11 (NO washout), U87-CD4-CXCR4 cells, % cell death @ 5mM compound. In kind it is toxicity, cell-based. The following applies: human, u87-cd4-cxcr4, 5000 µM.
Series [6] concerns Human immunodeficiency virus 1. The series can be described thus: MMV: HIV CXCR4-tropic env HxB2 pseudovirus assay produces luciferase signal in lieu of replicating viral particles Day 3 pi, U87-CD4-CXCR4, % inhibition at 5 mM compound. Format: functional. The arrangement: dose or concentration left out as unconfirmed. The following applies: Human immunodeficiency virus 1, HxB2, U87.CD4.CXCR4, 72 h.

Series [7] is described as follows: MMV: MTT Cytotoxicity Assay Day 7 pi of Assay #6 (compound washed out Day 1 pi), U87-CD4-CCR5 cells, % cell death @ 5mM compound. The following applies: human, u87-cd4-ccr5, 5000 µM. In kind it is toxicity, cell-based.
The test system of series [8] is Human immunodeficiency virus 1. The series can be described thus: MMV: HIV JRFL CCR5-tropic replication-competent virus, virus & compound washed out Day 1 pi, P24 ELISA Day 7 pi, U87-CD4-CCR5, % inhibition at 5 mM compound. In kind it is functional. The arrangement: dose or concentration left out as unconfirmed. To be noted: Human immunodeficiency virus 1, JR-FL. (In general: ELISA stands for enzyme-linked immunosorbent assay.)

In series [9] the test system is Human immunodeficiency virus 1. The experiment in a line: MMV: HIV CXCR4-tropic env NL4-3 pseudovirus assay produces luciferase signal in lieu of replicating viral particles Day 3 pi, U87-CD4-CXCR4, % inhibition at 5 mM compound. In kind it is functional. The arrangement: dose or concentration left out as unconfirmed. The following applies: Human immunodeficiency virus 1, NL4-3, U87.CD4.CXCR4, 72 h.

A word on the inhibition: it is the change of the read-out against control, counted positive when it falls. As to `CC(C)(C)c1ccc(C2CC3=Nc4ccccc4N(C(=O)c4ccccc4Cl)C(c4ccc(F)cc4)C3=C(O)C2)cc1` (stereo unspecified), the “% Cell Death” value in series [1] is reported as 28; in [2] it was -12; in series [3], 17; in series [4], 31; in series [5], 5; in [7], 8. Besides, the inhibition in series [6] was -1%.
With `O=C(NCc1ccco1)C1CCN(S(=O)(=O)c2ccc(Br)cc2)CC1`, the “% Cell Death” value in series [1] is on record as -12; in [2] it was 14; in series [3] it was -9; in [4], 32; in series [5], -5; in series [7] it was 5. Besides, the inhibition in series [6] amounted to 8%.
As for `COc1ccc(/C=C2/SC(=Nc3ccccc3)NC2=O)cc1`, the “% Cell Death” value in series [1] was found to be 115; in series [2] it was 54; in series [3] it was 77; in [4] it was 28; in series [5] it was 66; in series [7], 93. Also, the inhibition in series [6] worked out at 3%.
Take `Oc1c(CN2CCN(c3ccccc3F)CC2)cc(Br)c2cccnc12`: the “% Cell Death” value in [1] turned out to be 92; in series [2], 43; in series [3], 51; in series [4], 51; in series [5], 34; in series [7], 53. Moreover, in [6], the inhibition amounted to 1%.
In the case of `COc1ccc(-c2nc3cc(Cc4ccc5[nH]c(-c6ccc(OC)cc6)nc5c4)ccc3[nH]2)cc1`, the “% Cell Death” value in series [1] was 4; in [2] it was -6; in series [3] it was -21; in [4], 23; in series [5], 6; in [7], -21. Also, the inhibition in [6] is 1%.
In the case of `CCOC(=O)C1=C(C)N=c2sc(=Cc3ccccc3O)c(=O)n2C1c1ccc(OC)c2ccccc12` (stereo unspecified), the “% Cell Death” value in [1] worked out at 90; in series [2] it was 105; in series [3], 66; in [4], 42; in series [5], 113; in series [7], 40. The inhibition in series [6] was -1%.
As to `Cc1cc(NC(=O)C2c3ccccc3C(=O)N(CC(C)C)C2c2cccs2)no1` (stereo unspecified), the inhibition amounted to 7% in series [8] and 8% in series [9]. Further, the “% Cell Death” value in [1] was 36; in series [2], 23; in series [3], -20; in series [4], 26; in series [5], -16; in series [7], 55.
Consider `Cc1cc(NCCN2CCCCC2)c2ccc3ccccc3c2n1`, for which the “% Cell Death” value is 31 in series [1]; 64 in series [2]; 16 in series [3]; 34 in [4]; 5 in series [5]; 30 in series [7]. In [6], the inhibition was found to be 1%.
Turning to `COc1ccc2c(=O)cc(C(Cl)(Cl)Cl)oc2c1`, the “% Cell Death” value in series [1] is 100; in series [2] it was 90; in series [3], 23; in series [4], 41; in series [5], 95; in [7] it was 23. Moreover, the inhibition in series [6] turned out to be 8%.
As for `CCOC(=O)c1cnc2ccc(OC)cc2c1NCc1ccccc1`, the “% Cell Death” value in series [1] is given as -9; in series [2], -52; in series [3], 12; in series [4] it was 36; in series [5] it was 46; in [7], -10. Moreover, in series [6], the inhibition was -2%.
Take `COc1ccc(C=C2SC(Nc3ccc(F)cc3)=NC2=O)c(OC)c1`: the “% Cell Death” value in [1] was 96; in series [2], 25; in [3], 0; in [4] it was 28; in series [5] it was 65; in series [7], -49. Further, the inhibition in [6] stood at 4%.
For the molecule `O=C(Nc1ccsc1C(=O)NC1CCCCC1)c1ccc(F)cc1`, the results for the inhibition in series [8] and in series [9] were -2% and 3%, respectively. Besides, the “% Cell Death” value in [1] is given as -2; in [2], -22; in series [3], -43; in series [4], 8; in series [5] it was -14; in series [7], -4.
In the case of `CCC(C)NCC(O)(c1ccc(Cl)cc1)c1ccc(Cl)cc1` (stereo unspecified), the inhibition in series [8] is -2%; in series [9], 2%. Moreover, the “% Cell Death” value in [1] is on record as 31; in series [2], -1; in series [3], -33; in [4], 23; in [5], 3; in series [7], -11.
Regarding `COc1ccc(C(=O)C2CC2c2ccc(Cl)cc2)cc1` (stereo unspecified), the inhibition in [8] is 3%; in series [9], -2%. Also, the “% Cell Death” value stood at 32 in series [1]; 40 in [2]; 66 in series [3]; 29 in series [4]; 35 in series [5]; 6 in series [7].
As for `CCOC(=O)c1c[nH]c2c(CC)cccc2c1=O`, the inhibition amounted to 8% in [8] and 7% in series [9]. In addition, the “% Cell Death” value in [1] is recorded as -1; in series [2] it was 39; in [3], 14; in series [4], 76; in series [5], 35; in series [7], 36.
In the case of `CCC(c1ccccc1)c1nn2c(-c3cccs3)nnc2s1` (stereo unspecified), the inhibition in series [8] was determined as 0%; in series [9], 9%. Moreover, the “% Cell Death” value turned out to be 41 in series [1]; 3 in [2]; 28 in series [3]; 41 in series [4]; 73 in [5]; 18 in series [7].
With `CC1CC(C)CN(C(=O)c2ccc(Cl)cc2Cl)C1` (stereo unspecified), the inhibition in series [8] was 5%; in series [9], -1%. Further, the “% Cell Death” value in series [1] is on record as -31; in series [2] it was -5; in series [3], -16; in series [4], 31; in series [5], -51; in series [7], -14.
With `COc1ccccc1NC1=C(N2CCCCC2)C(=O)c2ccccc2C1=O`, the inhibition was 1% in series [8] and 5% in series [9]. Also, the “% Cell Death” value in [1] is on record as 19; in [2], 34; in [3] it was 8; in series [4], 15; in [5], -50; in series [7], 22.
With `CCn1c(CN2CCN(Cc3ccccc3)CC2)nc2cc(NC(=O)c3cccs3)ccc21`, the “% Cell Death” value is given as 10 in [1]; 21 in [2]; -27 in series [3]; 21 in series [4]; -27 in series [5]; 12 in series [7]. In addition, the inhibition in series [9] was 1%.

These data come from ChEMBL document CHEMBL3301472, “MMV Malaria Box HIV and cytotoxicity screening”.
